Drawing on patent publication EP0942911B1, “BENZOPYRANOPYRROLE AND BENZOPYRANOPYRIDINE ALPHA-1 ADRENERGIC COMPOUNDS” (Abbott Laboratories, priority 1996, dated 1998), this text covers Ki for 15 compounds.

What all share (test): biochemical
One assay concerns the target T1, α-1b adrenoreceptor (Mesocricetus auratus, UniProt P18841).
T1 sequence (P18841 1-515): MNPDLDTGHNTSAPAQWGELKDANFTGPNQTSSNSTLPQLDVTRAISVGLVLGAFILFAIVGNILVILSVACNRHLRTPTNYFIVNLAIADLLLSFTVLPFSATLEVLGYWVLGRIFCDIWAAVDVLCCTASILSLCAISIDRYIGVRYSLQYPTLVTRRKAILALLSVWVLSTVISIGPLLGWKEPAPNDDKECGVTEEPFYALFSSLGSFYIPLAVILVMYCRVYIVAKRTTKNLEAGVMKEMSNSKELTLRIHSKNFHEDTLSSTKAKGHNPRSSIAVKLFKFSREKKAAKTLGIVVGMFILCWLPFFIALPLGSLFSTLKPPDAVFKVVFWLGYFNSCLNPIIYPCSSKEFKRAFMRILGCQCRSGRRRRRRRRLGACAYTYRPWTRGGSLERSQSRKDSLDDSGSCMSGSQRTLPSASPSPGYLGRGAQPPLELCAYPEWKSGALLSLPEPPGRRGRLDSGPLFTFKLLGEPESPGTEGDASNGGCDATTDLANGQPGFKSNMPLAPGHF
It counts as binding, hamster. The essentials:
(§1)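 Stable LTK fibroblast lines carrying the bovine, hamster or rat α-1 subtype genes supply membranes, homogenized in Tris-HCl/EDTA at pH 7.4. A separate rat submaxillary gland preparation covers α-1A. Bound radioligand is quantified by liquid scintillation.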

For a further assay, the target named is T2, α-1a adrenoreceptor (Bos taurus, UniProt P18130).
T2 sequence (P18130 1-466): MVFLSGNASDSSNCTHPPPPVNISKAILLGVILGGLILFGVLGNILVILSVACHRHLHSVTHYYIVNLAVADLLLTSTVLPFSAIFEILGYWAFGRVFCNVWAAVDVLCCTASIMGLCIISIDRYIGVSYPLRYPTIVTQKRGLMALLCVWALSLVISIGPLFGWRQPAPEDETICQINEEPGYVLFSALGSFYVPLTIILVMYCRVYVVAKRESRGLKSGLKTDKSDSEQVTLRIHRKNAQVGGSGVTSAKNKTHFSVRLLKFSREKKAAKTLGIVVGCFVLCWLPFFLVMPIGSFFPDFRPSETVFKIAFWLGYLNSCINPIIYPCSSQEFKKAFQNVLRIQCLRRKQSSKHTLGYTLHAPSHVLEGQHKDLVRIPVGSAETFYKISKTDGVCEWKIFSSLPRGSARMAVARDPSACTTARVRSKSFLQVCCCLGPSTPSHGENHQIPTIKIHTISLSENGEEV
The assay is classed as binding, bovine. The essentials: as §1

For another assay, the target named is T3, α-1d adrenoreceptor (Rattus norvegicus, UniProt P23944).
T3 sequence (P23944 1-561): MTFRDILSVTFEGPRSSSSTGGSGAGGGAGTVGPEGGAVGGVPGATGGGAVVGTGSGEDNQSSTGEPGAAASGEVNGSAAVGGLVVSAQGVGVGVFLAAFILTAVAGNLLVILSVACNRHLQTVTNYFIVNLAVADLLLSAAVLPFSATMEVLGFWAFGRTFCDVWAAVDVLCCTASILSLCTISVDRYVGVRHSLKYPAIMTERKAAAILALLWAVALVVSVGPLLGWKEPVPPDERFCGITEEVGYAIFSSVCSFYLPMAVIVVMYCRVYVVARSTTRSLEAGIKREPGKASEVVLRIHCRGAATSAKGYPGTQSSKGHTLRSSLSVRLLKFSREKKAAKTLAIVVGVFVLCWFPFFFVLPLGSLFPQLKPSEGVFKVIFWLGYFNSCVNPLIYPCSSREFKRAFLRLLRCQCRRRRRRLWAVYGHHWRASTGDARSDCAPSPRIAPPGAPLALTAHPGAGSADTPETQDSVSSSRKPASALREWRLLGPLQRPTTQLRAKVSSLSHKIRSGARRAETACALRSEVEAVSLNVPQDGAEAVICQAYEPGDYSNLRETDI
The assay is classed as binding. The gist of the method: as §1

Where [1] appears, read: [3H]-prazosin radioligand, cloned receptor in LTK cell membranes, read-out: Radioligand Binding (Ki, nM) 1b (Hamster).
Setting [2] is: [3H]-prazosin radioligand, cloned receptor in LTK cell membranes, read-out: Radioligand Binding (Ki, nM) 1a (Bovine).
The mark [3] stands for this setting: [3H]-prazosin radioligand, cloned receptor in LTK cell membranes, read-out: Radioligand Binding (Ki, nM) 1d (Rat).
The mark [4] stands for this setting: read-out: Radioligand Binding (Ki, nM) 1b (Hamster).
The mark [5] stands for this setting: read-out: Radioligand Binding (Ki, nM) 1a (Bovine).
The mark [6] stands for this setting: read-out: Radioligand Binding (Ki, nM) 1d (Rat).

Structures can show the parent of a compound that is named as a salt. Where two headings read alike, the source gives them in different places.

As for “3-[4-((3aR,9bR)-cis-9-Methoxy-1,2,3,3a,4,9b-hexahydro-[1]-benzopyrano[3,4-c]pyrrol-2-yl]butyl]-7-methoxy-pyrido[3',2':4,5]thieno[3,2-d]pyrimidine-2,4(1H,3H)-dione hydrochloride [Example 33]”, the Ki on α-1b adrenoreceptor (setting [1]) is 10.5 nM; at α-1a adrenoreceptor (setting [2]), 0.082 nM; on α-1d adrenoreceptor (setting [3]), 0.701 nM.
Regarding `COc1ccc2c(c1)OC[C@H]1CN(CCn3c(=O)[nH]c4c(sc5ccccc54)c3=O)C[C@@H]21.Cl` (racemic) [Example 63, 3-[2-((±)-cis-7-Methoxy-1,2,3,3a,4,9b-hexahydro-[1]-benzopyrano[3,4-c]pyrrol-2-yl)ethyl]-[1]benzthieno[3,2-d]pyrimidine-2,4(1H,3H)-dione hydrochloride], the Ki amounted to 92.2 nM at α-1b adrenoreceptor (setting [4]), 11.2 nM at α-1a adrenoreceptor (setting [5]) and 70.1 nM on α-1d adrenoreceptor (setting [6]).
`COc1ccc2c(c1)OC[C@H]1CN(CCCn3c(=O)[nH]c4c(sc5ccccc54)c3=O)C[C@@H]21.Cl` (racemic) [Example 64, 3-[3-((±)-cis-7-Methoxy-1,2,3,3a,4,9b-hexahydro-[1]-benzopyrano[3,4-c]pyrrol-2-yl)propyl]-[1]benzthieno[3,2-d]pyrimidine-2,4(1H,3H)-dione hydrochloride]: the Ki at α-1b adrenoreceptor (setting [4]) was determined as 9.3 nM; at α-1a adrenoreceptor (setting [5]), 1.63 nM; at α-1d adrenoreceptor (setting [6]), 10.4 nM.
The corresponding values for `COc1cccc2c1[C@@H]1CN(CCn3c(=O)[nH]c4c(sc5ccccc54)c3=O)C[C@@H]1CO2.Cl` (racemic) [Example 65, 3-[2-((±)-cis-9-Methoxy-1,2,3,3a,4,9b-hexahydro-[1]-benzopyrano[3,4-c]pyrrol-2-yl)ethyl]-[1]benzthieno[3,2-d]pyrimidine-2,4(1H,3H)-dione hydrochloride] are 20.7 nM, 1.82 nM and 25 nM.
Taken in the same sequence, the figures for `COc1cccc2c1[C@@H]1CN(CCCn3c(=O)[nH]c4c(sc5ccccc54)c3=O)C[C@@H]1CO2.Cl` (racemic) [Example 66, 3-[3-((±)-cis-9-Methoxy-1,2,3,3a,4,9b-hexahydro-[1]-benzopyrano[3,4-c]pyrrol-2-yl)propyl]-[1]benzthieno[3,2-d]pyrimidine-2,4(1H,3H)-dione hydrochloride] were 533 nM, 24.8 nM and 87.7 nM.
For `COc1cccc2c1OC[C@H]1CN(CCn3c(=O)[nH]c4c(sc5ccccc54)c3=O)C[C@@H]21.Cl` (racemic) [Example 67, 3-[2-((±)-cis-6-Methoxy-1,2,3,3a,4,9b-hexahydro-[1]-benzopyrano[3,4-c]pyrrol-2-yl)ethyl]-[1]benzthieno[3,2-d]pyrimidine-2,4(1H,3H)-dione hydrochloride], the values for the inhibitory constant (Ki) on α-1b adrenoreceptor (setting [4]), on α-1a adrenoreceptor (setting [5]) and on α-1d adrenoreceptor (setting [6]) were 248 nM, 77.2 nM and 65 nM, respectively.
Taken in the same sequence, the figures for `COc1cccc2c1OC[C@H]1CN(CCCn3c(=O)[nH]c4c(sc5ccccc54)c3=O)C[C@@H]21.Cl` (racemic) [Example 68, 3-[3-((±)-cis-6-Methoxy-1,2,3,3a,4,9b-hexahydro-[1]-benzopyrano[3,4-c]pyrrol-2-yl)propyl]-[1]benzthieno[3,2-d]pyrimidine-2,4(1H,3H)-dione hydrochloride] were 23.6 nM, 7.82 nM and 42.5 nM.
Turning to `Cl.O=c1[nH]c2c(sc3ccccc32)c(=O)n1CCN1C[C@@H]2COc3ccccc3[C@@H]2C1` (racemic) [Example 69, 3-[2-((±)-cis-1,2,3,3a,4,9b-hexahydro-[1]-benzopyrano[3,4-c]pyrrol-2-yl)ethyl]-[1]benzthieno[3,2-d]pyrimidine-2,4(1H,3H)-dione hydrochloride], the inhibitory constant (Ki) was determined as 4.35 nM on α-1b adrenoreceptor (setting [4]), 0.344 nM on α-1a adrenoreceptor (setting [5]) and 1.63 nM at α-1d adrenoreceptor (setting [6]).
Regarding `O=c1[nH]c2c(sc3cccnc32)c(=O)n1CCCCN1C[C@@H]2COc3ccccc3[C@@H]2C1` (racemic) [Example 70, 3-[4-((±)-cis-1,2,3,3a,4,9b-hexahydro-[1]-benzopyrano[3,4-c]pyrrol-2-yl)butyl]-pyrido[2',3':4,5]thieno[3,2-d]pyrimidine-2,4(1H,3H)-dione dihydrochloride], the Ki on α-1b adrenoreceptor (setting [4]) turned out to be 0.724 nM; at α-1a adrenoreceptor (setting [5]), 0.082 nM; on α-1d adrenoreceptor (setting [6]), 0.482 nM.
Taken in the same sequence, the figures for `COc1cccc2c1[C@H]1CN(CCCCn3c(=O)[nH]c4c(sc5nccnc54)c3=O)C[C@@H]1CO2.Cl.Cl` (racemic) [Example 74, 3-[4-((±)-trans-9-Methoxy-1,2,3,3a,4,9b-hexahydro-[1]-benzopyrano[3,4-c]pyrrol-2-yl)butyl]-pyrazino[2',3':4,5]thieno[3,2-d]pyrimidine-2,4(1H,3H)-dione dihydrochloride] were 14.3 nM, 1.53 nM and 2.94 nM.
For the compound `COc1cc2[nH]c(=O)n(CCCCN3C[C@@H]4COc5ccccc5[C@@H]4C3)c(=O)c2cc1OC` (racemic) [Example 81, 3-[4-((±1-cis-1,2,3,3a,4,9b-hexahydro-[1]-benzopyrano[3,4-c]pyrrol-2-yl)butyl]-6,7-dimethoxy-quinazoline-2,4(1H,3H)-dione hydrochloride], the Ki at α-1b adrenoreceptor (setting [1]) turned out to be 0.192 nM; at α-1a adrenoreceptor (setting [2]), 0.052 nM; on α-1d adrenoreceptor (setting [3]), 0.108 nM.
Taken in the same sequence, the figures for `COc1cccc2c1[C@@H]1CCN(CCCCn3c(=O)[nH]c4c(sc5ncccc54)c3=O)C[C@H]1CO2` (racemic) [Example 85, 3-[4-((±)-trans-10-Methoxy-1,3,4,4a,5,10b-hexahydro-2H-[1]-benzopyrano[3,4-c]pyrido-3-yl)butyl]-pyrido[3',2':4,5]thieno[3,2-d]pyrimidine-2,4(1H,3H)-dione dihydrochloride] were 1.89 nM, 0.336 nM and 0.566 nM.
On to `COc1cnc2sc3c(=O)n(CCCCN4CC5COc6cccc(OC)c6[C@@H]5C4)c(=O)[nH]c3c2n1.Cl` (stereo in doubt) [Example 43, 3-[4-((3aS,9bR)-trans-9-Methoxy-1,2,3,3a,4,9b-hexahydro-[1]-benzopyrano[3,4-c]pyrrol-2-yl)butyl]-8-methoxy-pyrazino[2',3':4,5]thieno[3,2-d]pyrimidine-2,4(1H,3H)-dione hydrochloride], for which the values for the Ki on α-1b adrenoreceptor (setting [1]), on α-1a adrenoreceptor (setting [2]) and at α-1d adrenoreceptor (setting [3]) were 1.49 nM, 0.037 nM and 0.063 nM, respectively.
With `COc1cc2nc(N3CCN(C(=O)C4COc5ccccc5O4)CC3)nc(N)c2cc1OC` (stereo not drawn) [Doxazosin, doxazosin, reference compound], the Ki at α-1b adrenoreceptor worked out at 0.793 nM; on α-1a adrenoreceptor, 0.912 nM; at α-1d adrenoreceptor, 0.231 nM.
In the case of `COc1cccc2c1[C@@H]1CN(CCCCn3c(=O)[nH]c4c(sc5cccnc54)c3=O)C[C@@H]1CO2` [Example 1, 3-[4-((3aR,9bR)-cis-9-Methoxy-1,2,3,3a,4,9b-hexahydro-[1]-benzopyrano[3,4-c]pyrrol-2-yl)butyl]-pyrido[2',3':4,5]thieno[3,2-d]pyrimidine-2,4(1H,3H)-dione hydrochloride], the Ki on α-1b adrenoreceptor (setting [1]) worked out at 1.14 nM; on α-1a adrenoreceptor (setting [2]), 0.024 nM; on α-1d adrenoreceptor (setting [3]), 0.223 nM.
